Among the data in US20020103163A1, “Acetylenic sulfonamide thiol TACE inhibitors” (American Cyanamid Company, priority 1999, published 2002) are IC50 and inhibition values, retold here.

Test [1] deals with MMP-13 (Homo sapiens, UniProt P45452). Put plainly: MMP-13 inhibition (thiopeptide or fluorescent peptide substrate). Format: biochemical. The protocol: (§1) These standard pharmacological test procedures are based on the cleavage of a thiopeptide substrates such as Ac-Pro-Leu-Gly(2-mercapto-4-methyl-pentanoyl)-Leu-Gly-OEt by the matrix metalloproteinases MMP-1, MMP-13 (collagenases) or MMP-9 (gelatinase), which results in the release of a substrate product that reacts calorimetrically with DTNB (5,5′-dithiobis(2-nitro-benzoic acid)). The enzyme activity is measured by the rate of the color increase. The thiopeptide substrate is made up fresh as a 20 mM stock in 100% DMSO and the DTNB is dissolved in 100% DMSO as a 100 mM stock and stored in the dark at room temperature. […] The buffer enzyme, vehicle or inhibitor, and DTNB/substrate are added in this order to a 96 well plate (total reaction volume of 200 μl) and the increase in color is monitored spectrophotometrically for 5 minutes at 405 nm on a plate reader and the increase in color over time is plotted as a linear line.
(§2) Alternatively, a fluorescent peptide substrate is used. […] Upon cleavage of the substrate by an MMP, the fluorescence that is generated is quantitated on the fluorescence plate reader. […] The reaction is read (excitation 340 nm, emission 444 nm) for 10 min. and the increase in fluorescence over time is plotted as a linear line.
(§3) For either the thiopeptide or fluorescent peptide test procedures, the slope of the line is calculated and represents the reaction rate. […]

Test [2] has as its target TACE (Homo sapiens, UniProt P78536). Put plainly: TACE inhibition (fluorescent peptidyl substrate). Type of test: biochemical. As for the experimental part: Using 96-well black microtiter plates, each well receives a solution composed of 10 μL TACE (final concentration 1 μg/mL), 70 μL Tris buffer, pH 7.4 containing 10% glycerol (final concentration 10 mM), and 10 μL of test compound solution in DMSO (final concentration 1 μM, DMSO concentration <1%) and incubated for 10 minutes at room temperature. The reaction is initiated by addition of a fluorescent peptidyl substrate (final concentration 100 μM) to each well and then shaking on a shaker for 5 sec.
The reaction is read (excitation 340 nm, emission 420 nm) for 10 min. and the increase in fluorescence over time is plotted as a linear line. The slope of the line is calculated and represents the reaction rate.
The linearity of the reaction rate is confirmed (r^2>0.85). The mean (x±sem) of the control rate is calculated and compared for statistical significance (p<0.05) with drug-treated rates using Dunnett's multiple comparison test. Dose-response relationships can be generate using multiple doses of drug and IC50 values with 95% CI are estimated using linear regression.

Test [3] concerns the target MMP-9 (Homo sapiens, UniProt P14780). Put plainly: MMP-9 inhibition (thiopeptide or fluorescent peptide substrate). Format: biochemical. As for the experimental part: as §1, §2, §3
In test [4] the target is T1, MMP-1 (Homo sapiens, UniProt P03956).
T1 sequence (P03956 100-469): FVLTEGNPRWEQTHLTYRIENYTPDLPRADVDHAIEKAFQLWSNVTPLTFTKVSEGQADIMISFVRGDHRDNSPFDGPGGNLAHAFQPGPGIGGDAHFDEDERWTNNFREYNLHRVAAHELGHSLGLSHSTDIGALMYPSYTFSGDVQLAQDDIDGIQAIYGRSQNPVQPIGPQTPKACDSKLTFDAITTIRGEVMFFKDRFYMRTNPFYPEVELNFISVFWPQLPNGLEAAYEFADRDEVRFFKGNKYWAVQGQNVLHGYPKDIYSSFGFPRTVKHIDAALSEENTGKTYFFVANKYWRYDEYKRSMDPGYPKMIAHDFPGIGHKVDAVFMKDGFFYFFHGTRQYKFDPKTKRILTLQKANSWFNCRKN
Put plainly: MMP-1 inhibition (thiopeptide or fluorescent peptide substrate). Type of test: biochemical. The protocol: as §1, §2, §3

Test [5] relates to THP-1 cells. The test can be described thus: THP-1 soluble protein assay (LPS-stimulated THP-1 cells, ELISA). Format: cell-based. The conditions noted are these: Homo sapiens. The text has this: Mitogenic stimulation of THP-1 cells cause differentiation into macrophage like cells with concomitant secretion of tumor necrosis factor (TNF-_) and TNF receptor (TNF-R p75/80 and TNF-R p55/60) and Interleukin-8 (IL-8), among other proteins. In addition, non-stimulated THP-1 cells shed both the p75/80 and the p55/60 receptors over time. The release of membrane bound TNF-_ and possibly TNF-R p75/80 and TNF-R p55/60, but not IL-8, is mediated by an enzyme called TNF-_ converting enzyme or TACE.
THP-1 cells (from ATCC) are a human monocytic cell line which were obtained from the peripheral blood of a person with acute monocytic leukemia. […]
To perform an assay, the THP-1 cells are co-incubated in a 24 well plate with […] of a 24 mg/ml stock of Lipopolysacharide (LPS) (Calbiochem Lot#B13189) at 37iC in 5% CO2 at a concentration of 1.091×10^6 cells/ml (1.1 ml/well) for a total of 24 hours. […] Compounds can be evaluated for their effect on basal (non-stimulated) shedding of the receptors by replacing the LPS with […] of THP-1 media. […]
In addition, at the 24 hours timepoint, and the cells for each treatment group are collected by resuspension in 500 μl/well of THP-1 media and transferred into a FACS tube. […] The samples are run on a Becton Dickinson FaxCaliber FLOW cytometry machine and the amount of dye taken up by each cell is measured in the high red wavelength (FL3). […]

Chain of MMP-9 (P14780 94-707): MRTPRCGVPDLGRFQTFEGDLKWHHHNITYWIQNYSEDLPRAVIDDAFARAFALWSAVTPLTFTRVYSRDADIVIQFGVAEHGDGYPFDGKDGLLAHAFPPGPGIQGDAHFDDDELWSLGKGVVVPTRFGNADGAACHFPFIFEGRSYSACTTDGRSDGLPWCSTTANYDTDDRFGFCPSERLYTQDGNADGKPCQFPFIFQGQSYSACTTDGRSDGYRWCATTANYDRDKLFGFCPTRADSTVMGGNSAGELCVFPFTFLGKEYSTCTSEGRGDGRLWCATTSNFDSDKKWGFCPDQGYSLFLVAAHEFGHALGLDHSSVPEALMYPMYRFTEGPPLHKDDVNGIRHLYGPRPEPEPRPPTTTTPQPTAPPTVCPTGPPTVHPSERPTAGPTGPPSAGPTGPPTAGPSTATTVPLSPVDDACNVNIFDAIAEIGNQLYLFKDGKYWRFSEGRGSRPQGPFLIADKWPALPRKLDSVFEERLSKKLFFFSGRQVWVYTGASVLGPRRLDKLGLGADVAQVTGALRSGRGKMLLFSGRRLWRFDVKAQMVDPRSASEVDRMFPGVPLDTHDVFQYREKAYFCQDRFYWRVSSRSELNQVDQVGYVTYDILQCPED
Chain of TACE (P78536 215-824): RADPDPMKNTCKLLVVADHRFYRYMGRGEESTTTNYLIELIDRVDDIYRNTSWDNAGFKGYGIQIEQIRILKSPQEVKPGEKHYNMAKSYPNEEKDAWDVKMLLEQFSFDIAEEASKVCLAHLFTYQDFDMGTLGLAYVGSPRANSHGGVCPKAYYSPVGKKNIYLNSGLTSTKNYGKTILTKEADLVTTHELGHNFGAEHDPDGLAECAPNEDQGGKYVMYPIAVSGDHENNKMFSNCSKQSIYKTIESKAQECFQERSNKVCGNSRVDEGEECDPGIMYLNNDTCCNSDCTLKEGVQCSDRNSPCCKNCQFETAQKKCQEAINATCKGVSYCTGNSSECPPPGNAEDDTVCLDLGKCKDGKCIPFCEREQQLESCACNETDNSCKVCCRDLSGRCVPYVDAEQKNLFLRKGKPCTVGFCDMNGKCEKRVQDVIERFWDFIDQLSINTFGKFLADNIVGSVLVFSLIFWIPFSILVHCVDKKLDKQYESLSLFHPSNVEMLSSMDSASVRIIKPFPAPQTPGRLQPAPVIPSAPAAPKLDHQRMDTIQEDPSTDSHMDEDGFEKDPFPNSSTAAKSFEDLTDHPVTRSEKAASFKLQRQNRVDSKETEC

In the case of `CC#CCOc1ccc(S(=O)(=O)N(C)[C@H](C)CS)cc1` [Example 8, 4-But-2-ynyloxy-N-((1R)-2-mercapto-1-methyl-ethyl)-N-methyl-benzenesulfonamide], the IC50 in test [1] stood at 679 nM; in test [2] it was 273 nM; in test [3] it was 2700 nM; in test [4], 6300 nM. In test [5], this compound gave an inhibition at 3 µM of 3%.
